According to patent publication US20210222181A1, “BACTERIAL VECTORS FOR GENETIC MANIPULATION OF BACTERIA” (BIOVERSYS AG, priority 2018, published 2021):

Test system: clinical P. aeruginosa strains
Assay: Inhibition of motility of clinical P. aeruginosa strains on LB-agar plates
Assay type: cell-based, Pseudomonas aeruginosa
Conditions: three clinical isolates of P. aeruginosa, 10 μg/ml C15 in LB-agar, 16 h at 37° C., compared with absence of C15
Experimental: Motility of clinical P. aeruginosa strains was inhibited by 12-Methyl-tetradecanoic acid (C15). Three different clinical isolates of P. aeruginosa were plated on LB-agar plates in the absence (FIG. 9, left) and presence (FIG. 9, right) of 10 μg/ml C15 to inhibit cellular motility. The plates were incubated for 16 h at 37° C. […] In contrast, in the absence of C15, the colonies are diffuse and swarm into each other, making the selection of distinct single colonies in the knock-out screening process very difficult.

Compound: CCC(C)CCCCCCCCCCC(=O)O (centres unmarked) [C15, 12-Methyl-tetradecanoic acid]
- cellular motility / colony morphology on Luria Bertani agar plates: inhibited the cellular motility, leading to small well-defined colonies
- cellular motility / colony morphology on Luria Bertani agar plates (listed as 12-Methyl-tetradecanoic acid (C15)): Inhibition of the motility
